Results reported in publication PMC6509210, “ALK2 inhibitors display beneficial effects in preclinical models of ACVR1 mutant diffuse intrinsic pontine glioma” (Communications Biology, 2019).

System: phospho-SMAD1/5/8 and ID1 in HSJD-DIPG-007 xenograft tumours
Assay: Pharmacodynamic biomarkers by Western blot in orthotopic HSJD-DIPG-007 xenograft tumours
Type: in vivo, NOD.SCID mice
Conditions: daily oral administration, end of 28 days
Description: Fig. 5 In vivo pharmacokinetics/pharmacodynamics of LDN-193189 (top) and LDN-214117 (bottom). a, e Tolerability in NOD.SCID mice exposed to daily oral treatment with inhibitor over 14 days, as assessed by body weight relative to day 0. Mean and standard deviation of 3 mice per group are plotted. b, f Blood levels of compounds up to 8 h post-exposure to a single oral dose of drug at day 14. Mean and standard deviation of 3 mice per group are plotted. c, g Barplot of compound concentrations in blood (red), plasma (yellow) and brain tissue (blue) 2 h post-exposure to a single oral dose of drug at day 14. […]
For growth factor starvation, cells were washed twice with PBS and then incubated for 1 h in stem cell medium without growth factors. […] Following quantification using Pierce BCA Protein Assay Kit (Thermo Fisher), equal amounts of cell extracts were loaded for Western blot analysis. […] Signal was detected with ECL Prime western blotting detection agent (Amersham Biosciences), visualised using Hyperfilm ECL (Amersham Biosciences) and analysed using an X-ray film processor in accordance with standard protocols. […]

c1ccc2c(-c3cnn4cc(-c5ccc(N6CCNCC6)cc5)cnc34)ccnc2c1 [LDN-193189]
reduction in pharmacodynamic biomarkers phospho-SMAD1/5/8 and ID1 in tumours: near-ablation of phospho-SMAD1/5/8 and ID1
